Data taken from PMC11551755, “Structure-based discovery of first inhibitors targeting the helicase activity of human PIF1” (Nucleic Acids Research, 2024).

How the values were obtained:
FLhPIF1 [1] = biological target: T1, FLhPIF1 (Homo sapiens, UniProt Q9H611); assay: helicase assay after pre-incubation of SMI with FLhPIF1; assay type: biochemical; conditions: for pre-incubation time-course, inhibition of unwinding: 0–3 h pre-incubation, 100 nM FLhPIF1, 100 μM SMI, n = 4; for effect of pre-incubation on inhibition of unwinding: 100 μM SMI with 100 nM FLhPIF1, 1 h at 22°C, then 1:10 dilution, compared to no pre-incubation; for IC50: 2 h pre-incubation at 22°C with 100 nM FLhPIF1, then 1:10 dilution into helicase assay, read-out: IC50 for dsDNA unwinding by FLhPIF1 following pre-incubation
T1 construct: Full length human PIF1 (FLhPIF1) was expressed and purified as a His-SUMO fusion; His-SUMO (cleaved yes); made in house; 'following similar protocols' to hPIF1HD (ArcticExpress BL21(DE3) E. coli)
T1 sequence (Q9H611 1-641): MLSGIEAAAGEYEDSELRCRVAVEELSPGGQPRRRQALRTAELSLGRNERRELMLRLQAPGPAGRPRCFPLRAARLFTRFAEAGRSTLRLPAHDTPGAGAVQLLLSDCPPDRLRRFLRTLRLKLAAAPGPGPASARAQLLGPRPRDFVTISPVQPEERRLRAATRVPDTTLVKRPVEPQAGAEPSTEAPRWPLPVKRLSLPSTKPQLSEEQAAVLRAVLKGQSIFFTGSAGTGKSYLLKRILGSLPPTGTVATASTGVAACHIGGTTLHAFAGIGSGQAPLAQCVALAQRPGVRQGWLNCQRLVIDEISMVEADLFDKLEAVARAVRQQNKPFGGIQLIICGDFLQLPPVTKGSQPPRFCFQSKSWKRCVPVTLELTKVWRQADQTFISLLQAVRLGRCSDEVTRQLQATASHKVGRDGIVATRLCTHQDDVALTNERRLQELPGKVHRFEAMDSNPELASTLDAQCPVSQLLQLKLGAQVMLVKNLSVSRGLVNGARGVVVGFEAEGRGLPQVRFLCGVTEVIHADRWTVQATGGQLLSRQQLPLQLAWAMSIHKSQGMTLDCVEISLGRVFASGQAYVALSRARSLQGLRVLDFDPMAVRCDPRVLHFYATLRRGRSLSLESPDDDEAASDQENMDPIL
Procedure: Helicase activity was assayed using a radiometric strand displacement assay employing a partially single- and double-stranded substrate generated by annealing two oligonucleotides: 5′-(T)55-[…] and 5′-[…], as described previously ([19],[28]). The reaction buffer was 20 mM HEPES–NaOH pH 7.5, 20 mM NaCl, 5.5 mM MgCl2, 5 mM ATP, 1 mM DTT and 0.1 mg/ml BSA. SMIs (100 mM stocks in DMSO) were assayed at up to 2 mM without pre-incubation with FLhPIF1, unless otherwise stated. Reactions (0.1 nM substrate) were incubated at 37°C for 20 min, followed by addition of 0.2 volumes of 120 mM EDTA, 0.6% (w/v) SDS, 60% (v/v) glycerol and 0.1% (w/v) bromophenol blue before resolution of products by polyacrylamide gel electrophoresis (8%, 19:1 acrylamide:bis-acrylamide), 1× TBE (90 mM Tris–borate/2 mM EDTA, pH 8.3 with 0.05% (w/v) SDS buffer). Dried gels were exposed to phosphorimaging plates (Fujifilm) for imaging and quantification (Fuji FLA3000, image gauge V3.3 software). IC50 values were analysed by non-linear regression (variable slope) using GraphPad Prism.
First, we screened inhibitory activity of the SMIs listed in Table 1, following incubation of 100 nM FLhPIF1 with 100 μM SMI for 1 h at 22°C in the absence of substrates (ATP and DNA), before a 1:10 dilution into helicase reactions. […] Next, compounds 2, 5, 6 and 11, along with 4 and 1D were selected for analysis in a pre-incubation time-course (100 nM FLhPIF1, 100 μM SMI), up to 3 h before assaying helicase activity.
In parallel, IC50 values for inhibition of human UPF1 (hUPF1) helicase activity by the SMIs were also determined under the same conditions. UPF1-like SF1B helicases are the most closely related family of helicases to PIF1, with significant structural and mechanistic similarity ([52]).
Figure 6. SMI IC50 for dsDNA unwinding determined following pre-incubation. SMIs (0.0078–2 mM SMI) were incubated for 2 h at 22°C (100 nM FLhPIF1 or hUPF1) before dilution (1:10) in the standard helicase assay (0.1 nM DNA substrate). For 1D and 6, structures, electrophoresis of FLhPIF1 reaction product and graphs for IC50 value determination are shown. The graphed data include the activity of SMIs towards hUPF1 and IC50 values obtained are given. See Supplementary Figure S14 for the complete data set. TEXT PRINTED IN THE PICTURE: 1D: IC50 (μM): PIF1: 978 ± 221; IC50 (μM): UPF1: N.D. | 6: IC50 (μM): PIF1: 79.4 ± 16; IC50 (μM): UPF1: 1750 ± 426

FLhPIF1 [2] = biological target: T1, FLhPIF1; assay: DNA-dependent ATPase assay; assay type: biochemical; conditions: 1 mM compound, 25 nM FLhPIF1, 250 nM d(T)55, 10 min at 37°C
Procedure: ATP hydrolysis was measured under helicase reaction conditions with 25 nM FLhPIF1 and 250 nM oligo d(T)55 and 0.0125 μM [γ-^32P]ATP (6000 Ci/mmol). Released phosphate was quantified using the charcoal binding assay of Iggo and Lane ([45]) after 10 min at 37°C.
Supplementary Figure 11. ATPase activity determined with and without inhibitors. ATPase assays, 25 nM FLhPIF1, 250 nM d(T)55 ssDNA, were performed for 10 minutes at 37 °C under helicase reaction conditions, with and without 1 mM compound (n = 3). Compound 2 was not included in the analysis due to lack of available material. […] The data are broadly in agreement with the results of ssDNA binding EMSA except compound 6 (see discussion).

## CC(=O)c1ccc(-c2csc(N)n2)cc1 [Compound 2]
FLhPIF1 [1]
  pre-incubation time-course, inhibition of unwinding: increasing inhibition with increasing time of pre-incubation
  effect of pre-incubation on inhibition of unwinding: significantly enhanced inhibitory activity
  IC50: 65 ± 25 µM

## N#Cc1ccc(-c2csc(N)n2)cc1 [Compound 5]
FLhPIF1 [1]
  pre-incubation time-course, inhibition of unwinding: increasing inhibition with increasing time of pre-incubation
  effect of pre-incubation on inhibition of unwinding: significantly enhanced inhibitory activity
  IC50: 67.4 ± 20 µM

## Nc1nc(-c2ccc(C(=O)c3ccccc3)cc2)cs1 [Compound 6]
FLhPIF1 [1]
  pre-incubation time-course, inhibition of unwinding: increasing inhibition with increasing time of pre-incubation
  effect of pre-incubation on inhibition of unwinding: significantly enhanced inhibitory activity
  IC50: 79.4 ± 16 µM
FLhPIF1 [2]
  inhibition of DNA-dependent ATPase: effective inhibitor of DNA-dependent ATPase

## CC(=O)Nc1ccc(-c2csc(N)n2)cc1-c1ccc(C)cc1 [Compound 10]
FLhPIF1 [1]
  effect of pre-incubation on inhibition of unwinding: significantly enhanced inhibitory activity

## CC(=O)Nc1ccc(-c2csc(N)n2)cc1C1=CCNCC1 [Compound 11]
FLhPIF1 [1]
  pre-incubation time-course, inhibition of unwinding: increasing inhibition with increasing time of pre-incubation
  effect of pre-incubation on inhibition of unwinding: significantly enhanced inhibitory activity
  IC50: 109 ± 47 µM
